Results taken from BindingDB's records for patent US20230286970 (Italfarmaco, 2023).

Tests used:
Histone deacetylase 6 = target: T1, Histone deacetylase 6 (Homo sapiens, UniProt Q9UBN7); assay: Enzymatic Activity Assay
T1 sequence (Q9UBN7 whole entry): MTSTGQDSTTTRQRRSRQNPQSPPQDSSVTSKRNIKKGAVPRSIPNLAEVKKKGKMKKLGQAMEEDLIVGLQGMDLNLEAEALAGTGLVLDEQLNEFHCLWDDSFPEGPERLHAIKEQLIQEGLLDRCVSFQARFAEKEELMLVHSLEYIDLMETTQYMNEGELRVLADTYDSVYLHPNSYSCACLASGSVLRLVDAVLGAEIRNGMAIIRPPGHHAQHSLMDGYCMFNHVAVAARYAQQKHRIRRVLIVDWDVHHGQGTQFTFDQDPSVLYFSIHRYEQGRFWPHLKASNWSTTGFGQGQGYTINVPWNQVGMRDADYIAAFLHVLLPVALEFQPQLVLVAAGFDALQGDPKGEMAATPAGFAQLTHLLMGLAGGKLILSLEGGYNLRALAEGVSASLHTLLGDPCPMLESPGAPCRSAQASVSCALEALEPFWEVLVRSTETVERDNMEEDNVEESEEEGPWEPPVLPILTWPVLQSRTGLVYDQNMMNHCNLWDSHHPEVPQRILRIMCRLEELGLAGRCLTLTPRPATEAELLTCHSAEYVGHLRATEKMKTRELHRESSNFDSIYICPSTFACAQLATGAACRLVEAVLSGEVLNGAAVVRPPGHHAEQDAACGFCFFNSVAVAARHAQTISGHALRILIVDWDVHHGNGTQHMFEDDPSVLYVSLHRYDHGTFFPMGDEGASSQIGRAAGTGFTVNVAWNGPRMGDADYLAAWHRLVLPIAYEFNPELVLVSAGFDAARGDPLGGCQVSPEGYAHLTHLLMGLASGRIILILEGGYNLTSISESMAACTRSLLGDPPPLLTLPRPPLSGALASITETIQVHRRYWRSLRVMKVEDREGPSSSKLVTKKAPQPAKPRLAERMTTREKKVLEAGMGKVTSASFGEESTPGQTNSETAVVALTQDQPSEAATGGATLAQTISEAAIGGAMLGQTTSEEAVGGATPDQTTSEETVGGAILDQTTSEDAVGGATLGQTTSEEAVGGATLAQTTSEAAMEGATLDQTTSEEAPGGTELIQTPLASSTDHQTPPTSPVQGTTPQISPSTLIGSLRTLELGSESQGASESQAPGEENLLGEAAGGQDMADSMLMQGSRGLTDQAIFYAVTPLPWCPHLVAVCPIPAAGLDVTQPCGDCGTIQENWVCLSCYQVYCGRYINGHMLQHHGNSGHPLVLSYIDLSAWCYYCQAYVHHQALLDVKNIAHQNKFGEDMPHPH
Description: (§1) After a period of preincubation (incubation times and temperatures vary for different isoforms and are shown in table 1) 25 μL of solution containing the substrate were added. […] Enzymatic activity on recombinant human HDAC6 and HDAC1 was evaluated (Table 2) for each synthesized compound.

Histone deacetylase 1 = Histone deacetylase 1 (Homo sapiens, UniProt Q13547); assay: Enzymatic Activity Assay
Sequence of Histone deacetylase 1 (Q13547 whole entry): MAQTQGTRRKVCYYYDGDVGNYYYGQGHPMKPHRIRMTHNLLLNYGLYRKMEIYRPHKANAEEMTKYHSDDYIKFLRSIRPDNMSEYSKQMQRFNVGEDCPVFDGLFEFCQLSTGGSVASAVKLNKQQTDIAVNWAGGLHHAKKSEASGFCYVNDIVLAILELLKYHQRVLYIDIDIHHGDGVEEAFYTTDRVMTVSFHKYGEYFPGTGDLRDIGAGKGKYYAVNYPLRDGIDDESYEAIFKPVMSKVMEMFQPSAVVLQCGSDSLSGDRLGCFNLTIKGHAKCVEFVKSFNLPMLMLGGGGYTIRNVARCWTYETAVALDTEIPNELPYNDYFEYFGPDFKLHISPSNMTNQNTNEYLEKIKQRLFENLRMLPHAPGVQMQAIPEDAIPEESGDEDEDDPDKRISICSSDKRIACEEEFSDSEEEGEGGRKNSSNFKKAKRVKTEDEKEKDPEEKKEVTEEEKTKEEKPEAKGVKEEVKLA
Description: as §1

| Structure (SMILES) | IC50 (Histone deacetylase 6) [nM] | IC50 (Histone deacetylase 1) [µM] |
| --- | --- | --- |
| Nc1ccc(-c2cn(Cc3ccc(-c4nnc(C(F)F)o4)cc3)nn2)cn1 [US20230286970, Compound 52] | 23 | – |
| Nc1ncc(-c2cccc(-c3nnn(Cc4ccc(-c5nnc(C(F)F)o5)cn4)n3)c2)s1 [US20230286970, Compound 38] | 18 | > 200 |
| O=C1NCc2ccc(-c3nnn(Cc4ccc(-c5nnc(C(F)F)o5)cc4)n3)cc21 [US20230286970, Compound 55] | 24 | > 200 |
| NC(=O)c1cccc(-c2nnn(Cc3ccc(-c4nnc(C(F)F)o4)cn3)n2)c1 [US20230286970, Compound 29] | 10 | > 200 |
| O=C1Nc2ccc(-c3nnn(Cc4ccc(-c5nnc(C(F)F)o5)cc4)n3)cc2NC12CCCCC2 [US20230286970, Compound 157] | 70 | > 200 |
| Nc1ncnc2sc(-c3cn(Cc4ccc(-c5nnc(C(F)F)o5)c(F)c4F)nn3)cc12 [US20230286970, Compound 384] | 63 | – |
| Nc1ncnc2sc(-c3cn(Cc4cc(F)c(-c5nnc(C(F)F)o5)cc4F)nn3)cc12 [US20230286970, Compound 415] | 49 | – |
| O=C1NCc2ccc(-c3nnn(Cc4c(F)cc(-c5nnc(C(F)F)o5)cc4F)n3)cc21 [US20230286970, Compound 57] | 25 | > 200 |
| C[C@@H](c1ccc(-c2nnc(C(F)F)o2)cc1)n1cc(-c2ccc(N)nc2)nn1 [US20230286970, Compound 255] | 377 | – |
| CN(C)c1ccc2cc(-c3cn(Cc4c(F)cc(-c5nnc(C(F)F)o5)cc4F)nn3)ccc2n1 [US20230286970, Compound 399] | 247 | – |
| CN(C)C(=Nc1ccc(-c2cn(Cc3ccc(-c4nnc(C(F)F)o4)cc3)nn2)cc1)N(C)C [US20230286970, Compound 217] | 154 | > 200 |
| C[C@H](c1ccc(-c2nnc(C(F)F)o2)cc1)n1cc(-c2ccc(N)nc2)nn1 [US20230286970, Compound 106] | 41 | – |
| O=C(O)c1cccc(-c2cn(Cc3ccc(-c4nnc(C(F)F)o4)cc3)nn2)c1 [US20230286970, Compound 275] | 373 | > 200 |
| COc1ncc(NCc2ccc(-n3cc(Cc4ccc(-c5nnc(C(F)F)o5)cc4)nn3)cc2)cc1C(N)=O [US20230286970, Compound 286] | 99 | > 200 |
| FC(F)c1nnc(-c2cnc(Cn3nnc(-c4cccs4)n3)nc2)o1 [US20230286970, Compound 187] | 41 | > 200 |
| Oc1ccc(-c2nnn(Cc3ccc(-c4nnc(C(F)F)o4)cc3)n2)cc1 [US20230286970, Compound 56] | 25 | > 200 |
| NCc1ccc(-c2cn(Cc3c(F)cc(-c4nnc(C(F)F)o4)cc3F)nn2)cc1 [US20230286970, Compound 44] | 20 | 163 |
| Nc1ccc(-n2cc(Cc3ccc(-c4nnc(C(F)F)o4)cc3)nn2)cn1 [US20230286970, Compound 413] | 515 | – |
| CCN(Cc1cn(Cc2c(F)cc(-c3nnc(C(F)F)o3)cc2F)nn1)C(=O)Nc1cccnc1OC [US20230286970, Compound 283] | 225 | > 200 |
| NCc1ccc(-c2nnn(Cc3c(F)cc(-c4nnc(C(F)F)o4)cc3F)n2)cc1 [US20230286970, Compound 33] | 14 | > 200 |
| O=C(O)c1cccc(-c2nnn(Cc3ccc(-c4nnc(C(F)F)o4)cc3)n2)c1 [US20230286970, Compound 260] | 480 | > 200 |
